Laboratory results: US20040039019A1, “Selected anthranilaminde pyridinamides and their use as pharmaceutical agents” (Schering AG, priority 2002, published 2004)

Legend:
VEGFR II (KDR) = VEGFR II (KDR) (Homo sapiens, UniProt P35968); experiment: Inhibition of the KDR kinase activity; assay type: biochemical; details: poly-(Glu4Tyr) substrate, 33P-ATP, 10 minutes at room temperature
Procedure: Solutions Required for the Tests
Stock solution A: 3 mmol of ATP in water, pH 7.0 (−70° C.)
Stock solution B: g-33P-ATP 1 mCi/100 μl
Stock solution C: poly-(Glu4Tyr) 10 mg/ml in water
Substrate solvent: 10 mmol of DTT, 10 mmol of manganese chloride, 100 mmol of magnesium chloride
Enzyme solution: 120 mmol of tris/HCl, pH 7.5, 10 μM of sodium vanadium oxide
Inhibition of the KDR- and FLT-1 Kinase Activity in the Presence of the Compounds According to the Invention
In a microtiter plate (without protein binding) that tapers to a point, 10 μl of substrate mix (10 μl of volume of ATP stock solution A +25 μCi of g-33P-ATP (about 2.5 μl of stock solution B)+30 μl of poly-(Glu4Tyr) stock solution C+1.21 ml of substrate solvent), 10 μl of inhibitor solution (substances corresponding to the dilutions, 3% DMSO in substrate solvent as a control) and 10 μl of enzyme solution (11.25 μg of enzyme stock solution (KDR or FLT-1 kinase) are added at 4° C. in 1.25 ml of enzyme solution (dilute). It is thoroughly mixed and incubated for 10 minutes at room temperature. Then, 10 μl of stop solution (250 mmol of EDTA, pH 7.0) is added, mixed, and 10 μl of the solution is transferred to a P 81 phosphocellulose filter. Then, it is washed several times in 0.1 M phosphoric acid. The filter paper is dried, coated with Meltilex and measured in a microbeta counter. […]

[1] = molecular target: T1, human Cytochrome P 450 1A2 (Homo sapiens, UniProt P05177); experiment: Cytochrome P450 inhibition, isoenzyme 1A2; assay type: in vitro ADME; details: baculovirus/insect cell-expressed human isoenzyme 1A2; read-out: Inhibition of the Cytochrome P450 Isoenzymes (IC50) 1A2
T1 construct: host or cells: baculovirus/insect cells
T1 sequence (P05177 1-516): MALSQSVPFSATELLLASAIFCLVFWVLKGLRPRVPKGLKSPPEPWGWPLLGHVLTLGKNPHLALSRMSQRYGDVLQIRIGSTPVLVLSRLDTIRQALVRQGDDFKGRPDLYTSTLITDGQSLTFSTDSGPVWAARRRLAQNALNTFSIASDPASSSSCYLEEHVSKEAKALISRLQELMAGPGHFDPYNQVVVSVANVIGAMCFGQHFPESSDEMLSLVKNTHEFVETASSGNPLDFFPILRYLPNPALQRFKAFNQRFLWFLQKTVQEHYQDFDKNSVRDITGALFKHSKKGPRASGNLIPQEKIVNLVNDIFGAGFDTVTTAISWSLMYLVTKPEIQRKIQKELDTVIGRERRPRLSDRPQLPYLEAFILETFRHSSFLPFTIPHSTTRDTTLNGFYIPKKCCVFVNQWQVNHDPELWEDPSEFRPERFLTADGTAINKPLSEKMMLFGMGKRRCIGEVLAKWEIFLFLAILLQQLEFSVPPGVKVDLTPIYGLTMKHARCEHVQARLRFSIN
Procedure: (§1) Cytochrome P450 Inhibition
(§2) The Cytochrome P450 inhibition was performed according to the publication of Crespi et al. (Anal. Biochem., 248, 188-190 (1997)) with use of baculovirus/insect cell-expressed, human Cytochrome P 450 isoenzymes (1A2, 2C9, 2C19, 2D6, 3A4).

[2] = molecular target: T2, human Cytochrome P 450 2C9 (Homo sapiens, UniProt P11712); experiment: Cytochrome P450 inhibition, isoenzyme 2C9; assay type: in vitro ADME; details: baculovirus/insect cell-expressed human isoenzyme 2C9; read-out: Inhibition of the Cytochrome P450 Isoenzymes (IC50) 2C9
T2 construct: host or cells: baculovirus/insect cells
T2 sequence (P11712 whole entry): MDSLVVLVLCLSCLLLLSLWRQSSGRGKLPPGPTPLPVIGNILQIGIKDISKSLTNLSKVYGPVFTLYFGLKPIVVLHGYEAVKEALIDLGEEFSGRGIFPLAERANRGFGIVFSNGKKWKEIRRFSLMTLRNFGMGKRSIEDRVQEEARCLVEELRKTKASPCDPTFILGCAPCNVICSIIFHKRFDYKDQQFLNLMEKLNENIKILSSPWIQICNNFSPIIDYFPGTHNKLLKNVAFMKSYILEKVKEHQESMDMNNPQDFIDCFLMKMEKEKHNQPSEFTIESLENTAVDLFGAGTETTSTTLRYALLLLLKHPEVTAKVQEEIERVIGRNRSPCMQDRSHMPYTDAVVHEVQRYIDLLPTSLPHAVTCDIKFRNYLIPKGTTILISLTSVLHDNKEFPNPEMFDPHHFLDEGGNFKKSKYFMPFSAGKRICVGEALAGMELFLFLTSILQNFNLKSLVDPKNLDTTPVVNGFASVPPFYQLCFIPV
Procedure: as §1, §2

[3] = molecular target: T3, human Cytochrome P 450 2C19 (Homo sapiens, UniProt P33261); experiment: Cytochrome P450 inhibition, isoenzyme 2C19; assay type: in vitro ADME; details: baculovirus/insect cell-expressed human isoenzyme 2C19; read-out: Inhibition of the Cytochrome P450 Isoenzymes (IC50) 2C19
T3 construct: host or cells: baculovirus/insect cells
T3 sequence (P33261 whole entry): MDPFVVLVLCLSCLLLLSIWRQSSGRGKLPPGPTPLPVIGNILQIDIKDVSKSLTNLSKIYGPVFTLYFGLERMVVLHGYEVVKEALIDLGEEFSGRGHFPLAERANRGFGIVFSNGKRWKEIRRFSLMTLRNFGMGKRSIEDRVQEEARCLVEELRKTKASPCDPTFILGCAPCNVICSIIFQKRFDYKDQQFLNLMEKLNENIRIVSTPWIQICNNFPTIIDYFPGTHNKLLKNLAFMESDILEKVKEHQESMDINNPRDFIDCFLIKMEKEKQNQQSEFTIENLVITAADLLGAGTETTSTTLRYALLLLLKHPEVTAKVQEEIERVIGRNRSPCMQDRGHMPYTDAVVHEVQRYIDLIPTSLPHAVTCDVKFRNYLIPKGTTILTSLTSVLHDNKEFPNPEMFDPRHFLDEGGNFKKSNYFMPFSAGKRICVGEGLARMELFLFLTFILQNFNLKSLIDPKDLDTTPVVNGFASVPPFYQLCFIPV
Procedure: as §1, §2

[4] = molecular target: T4, human Cytochrome P 450 2D6 (Homo sapiens, UniProt P10635); experiment: Cytochrome P450 inhibition, isoenzyme 2D6; assay type: in vitro ADME; details: baculovirus/insect cell-expressed human isoenzyme 2D6; read-out: Inhibition of the Cytochrome P450 Isoenzymes (IC50) 2D6
T4 construct: host or cells: baculovirus/insect cells
T4 sequence (P10635 whole entry): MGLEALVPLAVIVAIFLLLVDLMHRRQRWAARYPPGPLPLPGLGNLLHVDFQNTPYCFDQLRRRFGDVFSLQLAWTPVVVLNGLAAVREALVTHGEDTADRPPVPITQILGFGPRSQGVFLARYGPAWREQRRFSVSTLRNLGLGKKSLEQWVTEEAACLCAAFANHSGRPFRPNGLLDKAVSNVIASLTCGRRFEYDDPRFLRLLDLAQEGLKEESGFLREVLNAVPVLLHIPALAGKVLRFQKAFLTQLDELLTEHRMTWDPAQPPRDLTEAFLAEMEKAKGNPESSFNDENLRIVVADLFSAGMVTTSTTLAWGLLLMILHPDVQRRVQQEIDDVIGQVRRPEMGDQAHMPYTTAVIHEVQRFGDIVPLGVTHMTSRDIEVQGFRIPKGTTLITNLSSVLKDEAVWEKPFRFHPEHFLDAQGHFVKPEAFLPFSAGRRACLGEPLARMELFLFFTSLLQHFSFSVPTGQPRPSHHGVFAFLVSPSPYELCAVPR
Procedure: as §1, §2

[5] = molecular target: T5, human Cytochrome P 450 3A4 (Homo sapiens, UniProt P08684); experiment: Cytochrome P450 inhibition, isoenzyme 3A4; assay type: in vitro ADME; details: baculovirus/insect cell-expressed human isoenzyme 3A4; read-out: Inhibition of the Cytochrome P450 Isoenzymes (IC50) 3A4
T5 construct: host or cells: baculovirus/insect cells
T5 sequence (P08684 whole entry): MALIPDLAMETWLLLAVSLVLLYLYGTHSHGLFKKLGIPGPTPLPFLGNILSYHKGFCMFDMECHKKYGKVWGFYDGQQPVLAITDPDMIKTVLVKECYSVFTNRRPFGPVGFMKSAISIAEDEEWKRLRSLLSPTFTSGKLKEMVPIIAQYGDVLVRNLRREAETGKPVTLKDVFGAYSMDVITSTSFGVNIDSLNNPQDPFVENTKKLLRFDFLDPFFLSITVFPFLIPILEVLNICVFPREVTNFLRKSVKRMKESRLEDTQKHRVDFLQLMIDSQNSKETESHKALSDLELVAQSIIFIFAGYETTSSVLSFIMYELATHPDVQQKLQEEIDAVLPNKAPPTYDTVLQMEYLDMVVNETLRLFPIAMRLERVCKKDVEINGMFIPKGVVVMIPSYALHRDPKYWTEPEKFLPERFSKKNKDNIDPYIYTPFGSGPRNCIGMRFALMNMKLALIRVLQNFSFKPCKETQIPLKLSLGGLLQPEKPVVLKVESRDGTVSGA
Procedure: as §1, §2

Sequence of VEGFR II (KDR) (P35968 20-1356, species assumed): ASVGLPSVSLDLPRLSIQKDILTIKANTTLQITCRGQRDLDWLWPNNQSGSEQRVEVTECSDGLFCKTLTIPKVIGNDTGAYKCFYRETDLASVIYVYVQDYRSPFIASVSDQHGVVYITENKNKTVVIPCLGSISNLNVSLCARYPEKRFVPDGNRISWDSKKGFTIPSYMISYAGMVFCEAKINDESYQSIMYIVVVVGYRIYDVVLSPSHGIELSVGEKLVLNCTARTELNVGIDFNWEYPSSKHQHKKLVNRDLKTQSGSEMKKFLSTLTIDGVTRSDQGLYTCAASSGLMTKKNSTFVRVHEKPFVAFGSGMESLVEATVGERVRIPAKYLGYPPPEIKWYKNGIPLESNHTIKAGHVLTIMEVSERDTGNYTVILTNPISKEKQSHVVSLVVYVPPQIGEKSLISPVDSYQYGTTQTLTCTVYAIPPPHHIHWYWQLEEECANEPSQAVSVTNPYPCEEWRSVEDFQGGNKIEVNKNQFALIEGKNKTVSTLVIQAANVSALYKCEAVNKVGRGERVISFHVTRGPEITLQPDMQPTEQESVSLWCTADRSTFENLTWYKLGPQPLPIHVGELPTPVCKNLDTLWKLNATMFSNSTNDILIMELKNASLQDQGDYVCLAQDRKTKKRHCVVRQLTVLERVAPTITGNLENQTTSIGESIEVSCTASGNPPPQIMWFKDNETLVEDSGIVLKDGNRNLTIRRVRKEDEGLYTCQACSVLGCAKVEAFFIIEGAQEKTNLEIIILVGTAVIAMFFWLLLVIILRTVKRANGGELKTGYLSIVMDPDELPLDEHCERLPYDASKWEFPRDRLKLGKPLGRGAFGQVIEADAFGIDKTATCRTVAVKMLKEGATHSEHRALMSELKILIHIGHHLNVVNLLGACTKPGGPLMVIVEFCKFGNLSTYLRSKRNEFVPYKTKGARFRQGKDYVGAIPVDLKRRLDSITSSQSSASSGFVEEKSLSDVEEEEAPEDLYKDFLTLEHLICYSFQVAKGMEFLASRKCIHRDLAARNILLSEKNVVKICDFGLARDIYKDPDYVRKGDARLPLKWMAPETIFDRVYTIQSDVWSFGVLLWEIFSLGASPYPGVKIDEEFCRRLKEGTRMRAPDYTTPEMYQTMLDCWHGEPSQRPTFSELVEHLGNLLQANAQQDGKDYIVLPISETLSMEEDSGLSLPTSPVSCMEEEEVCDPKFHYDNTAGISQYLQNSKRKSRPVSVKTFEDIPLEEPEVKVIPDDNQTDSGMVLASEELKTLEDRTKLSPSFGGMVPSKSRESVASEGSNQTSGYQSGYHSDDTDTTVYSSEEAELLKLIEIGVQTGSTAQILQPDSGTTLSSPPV

With `O=C1Cc2ccc(NC(=O)c3ccccc3NCc3ccc(=O)[nH]c3)cc2N1` [Example 1.0, N-(2-Oxo-2,3-dihydro-1H-indol-6-yl)-2-[(6-oxo-1,6-dihydro-pyridin-3-ylmethyl)-amino]-benzamide] the IC50 (VEGFR II (KDR)) was 0.05 µM, the IC50 [1] was over 30 µM and the IC50 [2] was 23 µM. The IC50 [3] was over 30 µM, the IC50 [4] was over 30 µM and the IC50 [5] was over 30 µM.
